Data set [1] is described as follows: Plasma stability test, human plasma. As to conditions: human plasma, 37° C.
Procedure: (§2) The peptide derivative of the present disclosure was added at a concentration of 1 μM to two types of plasma (human, rat), placed in each tube, and then cultured at 37° C. for time of 0, 30, 60, 120, and 240 minutes. The tube containing plasma was taken out every time, added with an acetonitrile solution containing an internal standard material (chlorpropamide), vortexed for 5 minutes, and centrifuged for 5 minutes (14,000 rpm, 4° C.). Thereafter, the plasma stability of the peptide derivative was evaluated by injecting the supernatant into an LC-MS/MS system and analyzing the drug at each time period. At this time, Procaine and Enalapril were used as reference materials for accuracy during a general plasma stability test.
(§3) After the reaction, the amount of drug remaining in each tube was analyzed by LC-MS/MS using Shimadzu Nexera XR system and TSQ vantage (Thermo). The HPLC column was used with a Luna C18 column (2.0×50 mm, 3 μm particle size; Phenomenex, US), and the mobile phase was distilled water (A) containing 0.1% formic acid and acetonitrile (B) containing 0.1% formic acid. Data analysis was performed using Xcalibur (version 1.6.1). In the result analysis, the plasma stability of each peptide derivative was expressed as % remaining for each time period for the sample without culture.
Data set [2] can be described thus: Plasma stability test, rat plasma. As to conditions: rat plasma, 1 μM, 37° C.
Procedure: as §2, §3
For another data set, the system named is AMPK phosphorylation. Briefly: AMPK phosphorylation activity in mouse adipocytes (Western blot). The format is cell-based. Particulars: 3T3-L1, 10 μM, 24 hours; APN5 = 1.0. The method, then:
There were confirmed effects of the peptide derivatives of the present disclosure on the expression and receptor activity of adiponectin in mouse adipocytes as a main adiponectin production site. A mouse adipocyte cell line 3T3-L1 was treated with each of the peptide derivatives of the present disclosure at a concentration of 10 μM and cultured for 24 hours, and then cells were obtained. Thereafter, the proteins were extracted and the effect on AMPK phosphorylation, which was responsible for the main downstream signaling of adiponectin, was confirmed by Western blot.
A general note: A western blot detects proteins with antibodies after separation by electrophoresis.

The nature of the next data set: physchem. As to conditions: pH 7.4, aqueous buffer, kinetic from dmso stock.
The target in a further data set is CYP2C9 (Homo sapiens, UniProt P11712). Particulars: microsomes, 10 µM. As to the method: (§1) Metabolites of each CYP isoenzyme indicator drug produced through the reaction were analyzed by LC-MS/MS using the Shimadzu Nexera XR system and TSQ vantage (Thermo).
For another data set, the target named is CYP2C19 (Homo sapiens, UniProt P33261). Particulars: microsomes, 10 µM. The method, then:
as §1

The target of the next data set is T1, CYP1A2 (Homo sapiens, UniProt P05177).
T1 sequence (P05177 1-516): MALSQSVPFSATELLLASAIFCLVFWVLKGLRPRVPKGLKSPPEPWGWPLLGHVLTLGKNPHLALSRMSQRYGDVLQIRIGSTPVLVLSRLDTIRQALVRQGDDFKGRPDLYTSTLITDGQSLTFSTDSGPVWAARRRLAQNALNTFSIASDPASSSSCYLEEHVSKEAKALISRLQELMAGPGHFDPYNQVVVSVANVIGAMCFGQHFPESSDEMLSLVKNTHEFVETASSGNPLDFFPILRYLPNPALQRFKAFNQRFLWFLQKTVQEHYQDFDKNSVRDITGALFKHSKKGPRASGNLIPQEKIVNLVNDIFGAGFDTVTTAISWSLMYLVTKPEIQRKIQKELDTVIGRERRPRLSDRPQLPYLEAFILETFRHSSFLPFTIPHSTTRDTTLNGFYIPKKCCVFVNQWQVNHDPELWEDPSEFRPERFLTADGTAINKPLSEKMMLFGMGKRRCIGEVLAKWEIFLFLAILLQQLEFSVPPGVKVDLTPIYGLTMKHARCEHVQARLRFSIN
As to conditions: microsomes, 10 µM. The method, then: as §1

The target in a further data set is CYP2D6 (Homo sapiens, UniProt P10635). As to conditions: microsomes, 10 µM. As to the method:
as §1

The next data set has as its target CYP3A4 (Homo sapiens, UniProt P08684). Particulars: microsomes, 10 µM. As to the method: as §1
Data set [3] in a line: Metabolic stability test, mouse liver microsomes. In kind it is in vitro ADME. Particulars: pH 7.4, mouse liver microsomes 0.5 mg/ml, NADPH, 37° C., 30 m.
Procedure: (§4) Three types of liver microsomes (Human, Rat, Mouse, 0.5 mg/ml), a 0.1 M phosphate buffer solution (pH 7.4), and the peptide derivative of the present disclosure were added at a concentration of 1 μM and pre-cultured at 37° C. for 5 minutes, and then added with an NADPH Regeneration system solution and cultured at 37° C. for 30 minutes. Thereafter, to terminate the reaction, the mixture was added with an acetonitrile solution containing an internal standard material (chlorpropamide), centrifuged for 5 minutes (14,000 rpm, 4° C.), and then the supernatant was injected into the LC-MS/MS system to analyze a substrate drug, and thus metabolic stability was evaluated.
(§5) The amount of substrate remaining through the reaction was analyzed by LC-MS/MS using Agilent 1290 infinity series pump system (Agilent, USA) and Triple Quad 5500 LC-MS/MS system (Applied Biosystems, USA). The HPLC column was used with a Kinetex C18 column (2.1×100 mm, 1.7 μm particle size; Phenomenex, USA), and the mobile phase was distilled water (A) containing 0.1% formic acid and acetonitrile (B) containing 0.1% formic acid. TurboSpray Ionization was used as an ion source for MS/MS, and a triple quadruple type was used as a mass spectrometer. The produced metabolites were quantified using a multiple reaction monitoring (MRM) quantitative mode, and data analysis was performed using Analyst software (version 1.6.1).
A short description of data set [4]: Metabolic stability test, rat liver microsomes. The format is in vitro ADME. As to conditions: pH 7.4, rat liver microsomes 0.5 mg/ml, NADPH, 37° C., 30 m. On the technique in general: Microsomes from liver hold many membrane-bound enzymes, among them those of drug oxidation.
Procedure: as §4, §5
Data set [5] can be described thus: in vitro. As to conditions: rat, plasma.
Procedure: as §2, §3
Data set [6] can be described thus: in vitro. Particulars: human, plasma.
Procedure: as §2, §3
Data set [7] is described as follows: in vitro. Particulars: human, microsomes, pH 7.4.
Procedure: as §4
The HPLC column was used with a Kinetex C18 column (2.1×100 mm, 1.7 μm particle size; Phenomenex, USA), and the mobile phase was distilled water (A) containing 0.1% formic acid and acetonitrile (B) containing 0.1% formic acid. TurboSpray Ionization was used as an ion source for MS/MS, and a triple quadruple type was used as a mass spectrometer. The produced metabolites were quantified using a multiple reaction monitoring (MRM) quantitative mode, and data analysis was performed using Analyst software (version 1.6.1).

Values after ≈ are worked out from the molar mass of the structure shown. Numbered stars: 1 amine (or outer) side, 2 acyl side, 3 side chain; on linkers, the order of the positions; unused ones are H or OH. Bridge positions count the residues as written; N and C are the ends. Square brackets hold non-standard residues; d marks the D form. Peptide text beside a SMILES is read from it. ξ: configuration not given here. ξhAlg = O=C(C(CCC=[*:3])N[*:1])[*:2]; AllylGly = C=CC[CH](N)C(=O)O

CYP2C9, sequence (P11712 whole entry): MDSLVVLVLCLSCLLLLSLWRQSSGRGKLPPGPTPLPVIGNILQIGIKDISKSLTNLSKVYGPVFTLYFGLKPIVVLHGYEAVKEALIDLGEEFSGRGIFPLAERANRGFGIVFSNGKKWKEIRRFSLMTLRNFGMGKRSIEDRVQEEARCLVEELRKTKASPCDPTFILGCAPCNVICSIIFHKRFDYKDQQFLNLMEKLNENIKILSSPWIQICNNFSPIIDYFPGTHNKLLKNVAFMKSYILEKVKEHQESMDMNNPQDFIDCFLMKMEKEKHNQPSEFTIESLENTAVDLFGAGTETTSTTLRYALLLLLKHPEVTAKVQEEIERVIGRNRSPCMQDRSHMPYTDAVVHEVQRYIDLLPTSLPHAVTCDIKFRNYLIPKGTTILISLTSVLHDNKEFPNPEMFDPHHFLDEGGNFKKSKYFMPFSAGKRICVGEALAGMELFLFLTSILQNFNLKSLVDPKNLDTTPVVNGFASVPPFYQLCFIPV
CYP2D6, sequence (P10635 whole entry): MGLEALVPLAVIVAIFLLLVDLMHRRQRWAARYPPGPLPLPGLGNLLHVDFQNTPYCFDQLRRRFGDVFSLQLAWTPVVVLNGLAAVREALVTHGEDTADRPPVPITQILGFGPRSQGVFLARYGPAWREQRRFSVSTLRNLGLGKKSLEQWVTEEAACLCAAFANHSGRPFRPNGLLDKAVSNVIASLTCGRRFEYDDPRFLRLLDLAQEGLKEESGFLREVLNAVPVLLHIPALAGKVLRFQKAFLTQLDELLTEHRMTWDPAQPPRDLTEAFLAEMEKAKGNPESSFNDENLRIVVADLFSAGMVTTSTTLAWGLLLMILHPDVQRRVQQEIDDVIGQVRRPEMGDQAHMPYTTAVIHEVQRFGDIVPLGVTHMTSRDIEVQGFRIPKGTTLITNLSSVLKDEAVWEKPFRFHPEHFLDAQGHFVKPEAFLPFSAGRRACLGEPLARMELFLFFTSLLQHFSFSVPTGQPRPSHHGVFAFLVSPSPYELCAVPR
CYP2C19, sequence (P33261 whole entry): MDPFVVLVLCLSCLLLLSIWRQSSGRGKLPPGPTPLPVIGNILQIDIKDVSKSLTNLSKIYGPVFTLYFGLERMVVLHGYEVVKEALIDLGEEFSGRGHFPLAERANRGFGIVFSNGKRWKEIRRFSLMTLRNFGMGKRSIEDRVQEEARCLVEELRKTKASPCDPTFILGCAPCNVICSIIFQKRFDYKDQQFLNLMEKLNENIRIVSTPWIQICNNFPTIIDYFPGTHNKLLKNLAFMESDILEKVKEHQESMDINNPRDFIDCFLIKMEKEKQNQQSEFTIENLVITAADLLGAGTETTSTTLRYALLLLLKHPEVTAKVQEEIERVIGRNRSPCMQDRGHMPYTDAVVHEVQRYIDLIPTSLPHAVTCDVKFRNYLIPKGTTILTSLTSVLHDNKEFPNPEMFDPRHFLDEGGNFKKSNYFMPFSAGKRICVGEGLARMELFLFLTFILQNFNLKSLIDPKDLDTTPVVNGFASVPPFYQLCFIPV
CYP3A4, sequence (P08684 whole entry): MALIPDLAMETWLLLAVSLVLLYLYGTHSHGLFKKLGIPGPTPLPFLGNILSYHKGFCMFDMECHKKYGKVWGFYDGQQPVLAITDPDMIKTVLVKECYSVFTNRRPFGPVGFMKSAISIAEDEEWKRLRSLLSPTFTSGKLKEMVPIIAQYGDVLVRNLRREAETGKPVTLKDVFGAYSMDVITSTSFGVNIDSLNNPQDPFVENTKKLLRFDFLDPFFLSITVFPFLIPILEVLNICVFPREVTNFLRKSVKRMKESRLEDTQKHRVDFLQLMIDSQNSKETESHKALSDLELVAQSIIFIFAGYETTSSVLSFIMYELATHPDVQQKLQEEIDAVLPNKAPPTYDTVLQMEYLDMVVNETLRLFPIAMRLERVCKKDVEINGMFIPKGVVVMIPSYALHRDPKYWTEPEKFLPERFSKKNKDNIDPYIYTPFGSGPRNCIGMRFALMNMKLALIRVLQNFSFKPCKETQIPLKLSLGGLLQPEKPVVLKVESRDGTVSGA
Procedure for physchem: A PRISMA HT solution was diluted in distilled water at a ratio of 1:40, and then used as a test buffer by adjusting the pH to 7.4.
10 mL of the prepared test material was diluted in 190 μL of isopropyl alcohol and prepared. In addition, 75 mL of the test solution and 70 mL of isopropyl alcohol were mixed to be used as a blank sample, and 5 mL of the test material diluted in isopropyl alcohol was added to the blank sample. After the diluted sample was mixed, the absorbance was measured and used as an initial test value. […] Thereafter, the precipitate was removed from the sample using a filter plate, 74 mL of the filtered sample was added with 75 mL of isopropyl alcohol, and then the absorbance was measured and used as the sample value.
The solubility value of the test material was analyzed using a msol Explore (Solubility explorer program) after measuring the absorbance of each sample through a microplate reader. The average and standard deviation of the experimental values (n=3) repeated three times were calculated using the Excel program.

As for `CCOC(=O)[C@H](CCc1ccccc1)N[C@@H](C)C(=O)N1CCC[C@H]1C(=O)O` [Enalapril], in [1] (1 μM, 30 m), the “Plasma stability (% remaining) Human, 30 m” value is listed as greater than 100 % remaining. The “Plasma stability (% remaining) Human, 120 m” value in data set [1] (1 μM, 120 m) is reported as 197.4 % remaining. For the same compound, in [2], the “Plasma stability (% remaining) Rat, 30 m” value is recorded as 27.9 % remaining and the “Plasma stability (% remaining) Rat, 120 m” value is less than 1 % remaining.

Consider `NCC(=O)NC(CC(N)=O)C(=O)NC(Cc1ccc(O)cc1)C(=O)NC(Cc1ccc(O)cc1)C(=O)NC(Cc1ccccc1)C(=O)O` (stereo not drawn) [DS-9, NH2-GNYYF-OH] (H-GNYYF-OH; configuration not given here), for which the “AMPK phosphorylation activity (fold change)” value with AMPK phosphorylation came out at 1.6 fold change.

By solubility is commonly meant how much of the substance goes into solution per volume. Read a high solubility as much dissolved substance. With `NC(CC(=O)O)C(=O)NC(Cc1ccc(O)cc1)C(=O)NC(Cc1ccc(O)cc1)C(=O)NC(Cc1ccccc1)C(=O)O` (stereo not drawn) [DS-27, NH2-DYYF-OH] (H-DYYF-OH; configuration not given here), in the data set with AMPK phosphorylation, the “AMPK phosphorylation activity (fold change)” value is on record as 1.3 fold change. In addition, the solubility at 24 h in “physchem” turned out to be 300 µg/mL (≈ 495 µM).

On to `NC(=O)C(Cc1ccccc1)NC(=O)C(Cc1ccc(O)cc1)NC(=O)C(Cc1ccc(O)cc1)NC(=O)C(N)CC(=O)O` (stereo not drawn) [DS-29, NH2-DYYF-NH2] (H-DYYF-NH2; configuration not given here), for which the “AMPK phosphorylation activity (fold change)” value in the data set with AMPK phosphorylation came to 1.2 fold change. In the data set “physchem”, this compound returned a solubility at 24 h of 300 µg/mL (≈ 495 µM).

`CC(=O)N1CCN(c2ccc(OCC3COC(Cn4ccnc4)(c4ccc(Cl)cc4Cl)O3)cc2)CC1` (stereo not drawn) [Ketoconazole, reference compound]: the “CYP inhibition (% of control activity) CYP2C9” value on CYP2C9 is >100 % of control activity. The “CYP inhibition (% of control activity) CYP2C19” value on CYP2C19 is >100 % of control activity. For the same compound, on CYP1A2, the “CYP inhibition (% of control activity) CYP1A2” value is on record as 97.2 % of control activity.

One may read the amount remaining as what is left of the initial amount, in per cent. Lower therefore signals more turnover. For the compound `CC(C)CC1NC(=O)C(N)CC/C=C\CC(C(N)=O)NC(=O)C(Cc2ccc(O)cc2)NC(=O)C(Cc2ccc(O)cc2)NC1=O` (stereo not drawn) [DS-73] (H-[ξhAlg]LYY[AllylGly]-NH2; staple (Z) 1-5; configuration not given here), the “CYP inhibition (% of control activity) CYP2C9” value at CYP2C9 was 96.5 % of control activity. The “CYP inhibition (% of control activity) CYP2C19” value on CYP2C19 was 85.1 % of control activity. Moreover, the “CYP inhibition (% of control activity) CYP2D6” value on CYP2D6 is on record as 85.9 % of control activity. The “CYP inhibition (% of control activity) CYP3A4” value on CYP3A4 was 80.5 % of control activity. For the same compound, the “CYP inhibition (% of control activity) CYP1A2” value at CYP1A2 is listed as 82.7 % of control activity. Besides, the share remaining at 0.5 h, 1 μM in data set [3] was 78%; in data set [4] it was 65.7%; in “in vitro [5]”, greater than 100%; in “in vitro [6]” it was 94.7%; in “in vitro [7]”, 71.6%. The share remaining at 2 h, 1 μM turned out to be 89.3% in the data set “in vitro [5]” and 75.2% in “in vitro [6]”. In the data set “physchem”, this compound registered a solubility at 24 h of 315 µg/mL (≈ 495 µM).

Regarding `NCCCCC(NC(=O)C(Cc1ccc(O)cc1)NC(=O)C(Cc1ccc(O)cc1)NC(=O)C(CC(=O)O)NC(=O)CN)C(N)=O` (stereo not drawn) [DS-35, NH2-GDYYK-NH2] (H-GDYYK-NH2; configuration not given here), the “CYP inhibition (% of control activity) CYP2C9” value at CYP2C9 is 93.6 % of control activity. The “CYP inhibition (% of control activity) CYP2C19” value at CYP2C19 is reported as 4.1 % of control activity. Moreover, on CYP2D6, the “CYP inhibition (% of control activity) CYP2D6” value is reported as 97.4 % of control activity. In addition, the “CYP inhibition (% of control activity) CYP3A4” value on CYP3A4 is >100 % of control activity. Besides, the “CYP inhibition (% of control activity) CYP1A2” value on CYP1A2 is recorded as 77.7 % of control activity. Besides, the share remaining at 0.5 h, 1 μM was 99.2% in data set [3]; 95.8% in [4]; 99.4% in the data set “in vitro [5]”; 2.9% in the data set “in vitro [6]”; greater than 100% in the data set “in vitro [7]”. The values for the share remaining at 2 h, 1 μM in the data set “in vitro [5]” and in “in vitro [6]” were 89.4% and less than 1%, respectively.

Take `CC(C)CC(NC(=O)CN)C(=O)N(C)C(Cc1ccc(O)cc1)C(=O)NC(Cc1ccc(O)cc1)C(=O)NC(Cc1ccccc1)C(N)=O` (stereo not drawn) [DS-56, NH2-GLY(N-Me)YF-NH2]: the “CYP inhibition (% of control activity) CYP2C9” value on CYP2C9 is listed as 100.0 % of control activity. The “CYP inhibition (% of control activity) CYP2C19” value at CYP2C19 was 73.5 % of control activity. Also, on CYP2D6, the “CYP inhibition (% of control activity) CYP2D6” value is 91.6 % of control activity. Besides, on CYP3A4, the “CYP inhibition (% of control activity) CYP3A4” value is on record as 9.2 % of control activity. Also, on CYP1A2, the “CYP inhibition (% of control activity) CYP1A2” value is 80.5 % of control activity. Moreover, the share remaining at 0.5 h, 1 μM stood at 10.6% in data set [3]; 41.1% in [4]; 70.9% in “in vitro [5]”; 2.8% in “in vitro [6]”; 53.9% in “in vitro [7]”. The share remaining at 2 h, 1 μM in the data set “in vitro [5]” is 29.4%; in the data set “in vitro [6]” it was less than 1%.

On to Ac-GDYYF-NH2 [DS-8, AcNH-GDYYF-NH2], for which the “CYP inhibition (% of control activity) CYP2C9” value on CYP2C9 is reported as >100 % of control activity. On CYP2C19, the “CYP inhibition (% of control activity) CYP2C19” value is 100 % of control activity. In addition, the “CYP inhibition (% of control activity) CYP2D6” value at CYP2D6 was >100 % of control activity. In addition, at CYP3A4, the “CYP inhibition (% of control activity) CYP3A4” value is reported as >100 % of control activity. On CYP1A2, the “CYP inhibition (% of control activity) CYP1A2” value is 95.1 % of control activity. Besides, the fraction remaining at 0.5 h, 1 μM in data set [3] was 83.6%; in data set [4], 78.2%; in the data set “in vitro [5]”, greater than 100%; in “in vitro [6]”, 39.8%; in the data set “in vitro [7]” it was 93.9%. The values for the amount remaining at 2 h, 1 μM in “in vitro [5]” and in the data set “in vitro [6]” were 96% and 3.3%, respectively.

What is called solubility (kinetic) is solubility judged after dilution from a stock solution rather than from solid. H-GDYYF-OH [DS-5, NH2-GDYYF-OH]: the “CYP inhibition (% of control activity) CYP2C9” value on CYP2C9 is 97.3 % of control activity. In addition, on CYP2C19, the “CYP inhibition (% of control activity) CYP2C19” value is on record as 80.9 % of control activity. Further, the “CYP inhibition (% of control activity) CYP2D6” value at CYP2D6 is 85.5 % of control activity. Moreover, on CYP3A4, the “CYP inhibition (% of control activity) CYP3A4” value is given as 90.9 % of control activity. Moreover, the “CYP inhibition (% of control activity) CYP1A2” value at CYP1A2 is recorded as 83.2 % of control activity. Besides, the fraction remaining at 0.5 h, 1 μM in data set [3] was 95.9%; in [4], 66.4%; in “in vitro [5]”, greater than 100%; in the data set “in vitro [6]” it was 1.4%; in the data set “in vitro [7]”, 62.5%. Besides, the results for the share remaining at 2 h, 1 μM in the data set “in vitro [5]” and in “in vitro [6]” were 94.1% and less than 1%, respectively. Further, the kinetic solubility at 24 h in the data set “physchem” is 328 µg/mL.

Turning to `CCN(CC)CCOC(=O)c1ccc(N)cc1` [Procaine], in data set [1] (cell marked (5 min)), the “Plasma stability (% remaining) Human, 30 m column, marked (5 min)” value came to 2.8 % remaining and the “Plasma stability (% remaining) Human, 120 m column, marked (5 min)” value is less than 1 % remaining. For the same compound, in data set [2], the “Plasma stability (% remaining) Rat, 30 m” value was 90.3 % remaining and the “Plasma stability (% remaining) Rat, 120 m” value was determined as 57.4 % remaining.

Source of the values: patent publication US20250049891A1, “NOVEL PEPTIDE DERIVATIVE DERIVED FROM ADIPONECTIN AND USE THEREOF” (SEOUL NATIONAL UNIVERSITY HOSPITAL, priority 2021, published 2025).
